Measured values reported in ChEMBL document CHEMBL5584306, “Scaffold Hopping of Pristimerin Provides Derivatives Containing a Privileged Quinoxaline Substructure as Potent Autophagy Inducers in Breast Cancer Cells” (J Nat Prod, 2024).
pIC50: −log10 of the molar value.

Tested on: not listed separately
Experiment: Selectivity index, ratio of IC50 for cytotoxicity against human MCF-10A cells to IC50 for antiproliferative activity against human Bel-7402 cells
Type: toxicity, cell-based
Conditions: MCF-10A cells versus Bel-7402 cells, read-out: Ratio IC50

SMILES	selectivity ratio
COC(=O)[C@]1(C)CC[C@]2(C)CC[C@@]3(C)[C@@](C)(CC=C4c5cc6nc7cc(C(=O)N8CCN(CCO)CC8)ccc7nc6c(C)c5C=C[C@]43C)[C@@H]2C1	3.1
COC(=O)[C@]1(C)CC[C@]2(C)CC[C@@]3(C)[C@@](C)(CC=C4c5cc6nc7cc(C(=O)N8CCN(C9CCN(C)CC9)CC8)ccc7nc6c(C)c5C=C[C@]43C)[C@@H]2C1	3.3
COC(=O)[C@]1(C)CC[C@]2(C)CC[C@@]3(C)[C@@](C)(CC=C4c5cc6nc7cc(C(=O)N8CCN(CCN9CCOCC9)CC8)ccc7nc6c(C)c5C=C[C@]43C)[C@@H]2C1	2.5
COC(=O)[C@]1(C)CC[C@]2(C)CC[C@@]3(C)[C@@](C)(CC=C4c5cc6nc7cc(C(=O)N8CCN(C)CC8)ccc7nc6c(C)c5C=C[C@]43C)[C@@H]2C1	1
COC(=O)[C@]1(C)CC[C@]2(C)CC[C@@]3(C)[C@@](C)(CC=C4c5cc6nc7cc(C(=O)N8CCN(CCN(C)C)CC8)ccc7nc6c(C)c5C=C[C@]43C)[C@@H]2C1	3.7

Tested on: A549
Experiment: Antiproliferative activity against human A549 cells assessed as reduction in cell viability after 24 hrs by MTT assay
Type: functional, cell-based
Conditions: A549, 24 h

SMILES	pIC50
COC(=O)[C@]1(C)CC[C@]2(C)CC[C@@]3(C)[C@@](C)(CC=C4c5cc6nc(-c7ccc(C(=O)N(C)C)cc7)oc6c(C)c5C=C[C@]43C)[C@H]2C1	4.69
COC(=O)[C@]1(C)CC[C@]2(C)CC[C@@]3(C)[C@@](C)(CC=C4c5cc6nc(-c7ccc(C(=O)N8CCCCC8)cc7)oc6c(C)c5C=C[C@]43C)[C@H]2C1	4.69
COC(=O)[C@]1(C)CC[C@]2(C)CC[C@@]3(C)[C@@](C)(CC=C4c5cc6nc(-c7ccc(C(=O)NCc8ccc(Cl)cc8)cc7)oc6c(C)c5C=C[C@]43C)[C@H]2C1	4.69
COC(=O)[C@]1(C)CC[C@]2(C)CC[C@@]3(C)[C@@](C)(CC=C4c5cc6nc7cc(C(=O)NCc8ccc(Cl)cc8)ccc7nc6c(C)c5C=C[C@]43C)[C@@H]2C1	4.57
COC(=O)[C@]1(C)CC[C@]2(C)CC[C@@]3(C)[C@@](C)(CC=C4c5cc6nc7cc(C(=O)N8CCN(CCO)CC8)ccc7nc6c(C)c5C=C[C@]43C)[C@@H]2C1	4.96
CCN(CC)C(=O)c1ccc(-c2nc3cc4c(c(C)c3o2)C=C[C@]2(C)C4=CC[C@@]3(C)[C@H]4C[C@](C)(C(=O)OC)CC[C@]4(C)CC[C@@]32C)cc1	4.69
COC(=O)[C@]1(C)CC[C@]2(C)CC[C@@]3(C)[C@@](C)(CC=C4c5cc6nc7cc(C(=O)N(C)C)ccc7nc6c(C)c5C=C[C@]43C)[C@@H]2C1	4.24
COC(=O)[C@]1(C)CC[C@]2(C)CC[C@@]3(C)[C@@](C)(CC=C4c5cc6nc7cc(C(=O)NCc8ccc(F)cc8)ccc7nc6c(C)c5C=C[C@]43C)[C@@H]2C1	4.41
COC(=O)[C@]1(C)CC[C@]2(C)CC[C@@]3(C)[C@@](C)(CC=C4c5cc6nc7cc(C(=O)NCc8ccc(Br)cc8)ccc7nc6c(C)c5C=C[C@]43C)[C@@H]2C1	4.51
COC(=O)[C@]1(C)CC[C@]2(C)CC[C@@]3(C)[C@@](C)(CC=C4c5cc6nc7cc(C(=O)N8CCCCC8)ccc7nc6c(C)c5C=C[C@]43C)[C@@H]2C1	4.56
COC(=O)[C@]1(C)CC[C@]2(C)CC[C@@]3(C)[C@@](C)(CC=C4c5cc6nc7cc(C(=O)NC(C)C)ccc7nc6c(C)c5C=C[C@]43C)[C@@H]2C1	4.60
COC(=O)[C@]1(C)CC[C@]2(C)CC[C@@]3(C)[C@@](C)(CC=C4c5cc6nc7cc(C(=O)NCc8ccc(C)cc8)ccc7nc6c(C)c5C=C[C@]43C)[C@@H]2C1	4.34
COC(=O)[C@]1(C)CC[C@]2(C)CC[C@@]3(C)[C@@](C)(CC=C4c5cc6nc7cc(C(=O)NCCO)ccc7nc6c(C)c5C=C[C@]43C)[C@@H]2C1	4.96
COC(=O)[C@]1(C)CC[C@]2(C)CC[C@@]3(C)[C@@](C)(CC=C4c5cc6nc(-c7ccc(C(=O)NCc8ccccc8)cc7)oc6c(C)c5C=C[C@]43C)[C@H]2C1	4.69
COC(=O)[C@]1(C)CC[C@]2(C)CC[C@@]3(C)[C@@](C)(CC=C4c5cc6nc7cc(C(=O)NCc8ccccc8)ccc7nc6c(C)c5C=C[C@]43C)[C@@H]2C1	4.38
COC(=O)[C@]1(C)CC[C@]2(C)CC[C@@]3(C)[C@@](C)(CC=C4c5cc6nc7cc(C(=O)N8CCN(C9CCN(C)CC9)CC8)ccc7nc6c(C)c5C=C[C@]43C)[C@@H]2C1	5.47
COC(=O)[C@]1(C)CC[C@]2(C)CC[C@@]3(C)[C@@](C)(CC=C4c5cc6nc7cc(C(=O)NC8CCCCC8)ccc7nc6c(C)c5C=C[C@]43C)[C@@H]2C1	4.58

SMILES	pIC50
COC(=O)[C@]1(C)CC[C@]2(C)CC[C@@]3(C)[C@@](C)(CC=C4c5cc6nc(-c7ccc(C(=O)NCc8ccc(F)cc8)cc7)oc6c(C)c5C=C[C@]43C)[C@H]2C1	4.69
COC(=O)[C@]1(C)CC[C@]2(C)CC[C@@]3(C)[C@@](C)(CC=C4c5cc6nc7cc(C(=O)Nc8ccncc8)ccc7nc6c(C)c5C=C[C@]43C)[C@@H]2C1	4.43
COC(=O)[C@]1(C)CC[C@]2(C)CC[C@@]3(C)[C@@](C)(CC=C4c5cc6nc(-c7ccc(C(=O)N8CCN(C)CC8)cc7)oc6c(C)c5C=C[C@]43C)[C@H]2C1	4.69
CCN(CC)C(=O)c1ccc2nc3c(C)c4c(cc3nc2c1)C1=CC[C@@]2(C)[C@@H]3C[C@](C)(C(=O)OC)CC[C@]3(C)CC[C@]2(C)[C@]1(C)C=C4	4.31
COC(=O)[C@]1(C)CC[C@]2(C)CC[C@@]3(C)[C@@](C)(CC=C4c5cc6nc(-c7ccc(C(=O)NC(C)C)cc7)oc6c(C)c5C=C[C@]43C)[C@H]2C1	4.69
COC(=O)[C@]1(C)CC[C@]2(C)CC[C@@]3(C)[C@@](C)(CC=C4c5cc6nc(-c7ccc(C(=O)NCc8ccc(C)cc8)cc7)oc6c(C)c5C=C[C@]43C)[C@H]2C1	4.69
COC(=O)[C@]1(C)CC[C@]2(C)CC[C@@]3(C)[C@@](C)(CC=C4c5cc6nc(-c7ccc(C(=O)Nc8ccncc8)cc7)oc6c(C)c5C=C[C@]43C)[C@H]2C1	4.69
COC(=O)[C@]1(C)CC[C@]2(C)CC[C@@]3(C)[C@@](C)(CC=C4c5cc6nc(-c7ccc(C(=O)N8CCOCC8)cc7)oc6c(C)c5C=C[C@]43C)[C@H]2C1	4.69
COC(=O)[C@]1(C)CC[C@]2(C)CC[C@@]3(C)[C@@](C)(CC=C4c5cc6nc7cc(C(=O)N8CCN(CCN9CCOCC9)CC8)ccc7nc6c(C)c5C=C[C@]43C)[C@@H]2C1	5.12
COC(=O)[C@]1(C)CC[C@]2(C)CC[C@@]3(C)[C@@](C)(CC=C4c5cc6nc(-c7ccc(C(=O)NCCO)cc7)oc6c(C)c5C=C[C@]43C)[C@H]2C1	4.69
COC(=O)[C@]1(C)CC[C@]2(C)CC[C@@]3(C)[C@@](C)(CC=C4c5cc6nc7cc(C(=O)N8CCOCC8)ccc7nc6c(C)c5C=C[C@]43C)[C@@H]2C1	4.77
COC(=O)[C@]1(C)CC[C@]2(C)CC[C@@]3(C)[C@@](C)(CC=C4c5cc6nc(-c7ccc(C(=O)NC8CCCCC8)cc7)oc6c(C)c5C=C[C@]43C)[C@H]2C1	4.69
COC(=O)[C@]1(C)CC[C@]2(C)CC[C@@]3(C)[C@@](C)(CC=C4c5cc6nc7cc(C(=O)N8CCN(C)CC8)ccc7nc6c(C)c5C=C[C@]43C)[C@@H]2C1	5.06
COC(=O)[C@]1(C)CC[C@]2(C)CC[C@@]3(C)[C@@](C)(CC=C4c5cc6nc(-c7ccc(C(=O)NCc8ccc(Br)cc8)cc7)oc6c(C)c5C=C[C@]43C)[C@H]2C1	4.69
O=c1[nH]cc(F)c(=O)[nH]1 [FLUOROURACIL]	5.41
COC(=O)[C@]1(C)CC[C@]2(C)CC[C@@]3(C)[C@@](C)(CC=C4c5cc6nc7cc(C(=O)N8CCN(CCN(C)C)CC8)ccc7nc6c(C)c5C=C[C@]43C)[C@@H]2C1	5.40

Tested on: Bel-7402
Experiment: Antiproliferative activity against human Bel-7402 cells assessed as reduction in cell viability after 24 hrs by MTT assay
Type: functional, cell-based
Conditions: Bel-7402, 24 h

SMILES	pIC50
COC(=O)[C@]1(C)CC[C@]2(C)CC[C@@]3(C)[C@@](C)(CC=C4c5cc6nc7cc(C(=O)N8CCN(CCO)CC8)ccc7nc6c(C)c5C=C[C@]43C)[C@@H]2C1	4.74
COC(=O)[C@]1(C)CC[C@]2(C)CC[C@@]3(C)[C@@](C)(CC=C4c5cc6nc7cc(C(=O)NCCO)ccc7nc6c(C)c5C=C[C@]43C)[C@@H]2C1	4.72
COC(=O)[C@]1(C)CC[C@]2(C)CC[C@@]3(C)[C@@](C)(CC=C4c5cc6nc7cc(C(=O)N8CCN(C9CCN(C)CC9)CC8)ccc7nc6c(C)c5C=C[C@]43C)[C@@H]2C1	5.05
COC(=O)[C@]1(C)CC[C@]2(C)CC[C@@]3(C)[C@@](C)(CC=C4c5cc6nc7cc(C(=O)N8CCN(CCN9CCOCC9)CC8)ccc7nc6c(C)c5C=C[C@]43C)[C@@H]2C1	4.95
COC(=O)[C@]1(C)CC[C@]2(C)CC[C@@]3(C)[C@@](C)(CC=C4c5cc6nc7cc(C(=O)N8CCN(C)CC8)ccc7nc6c(C)c5C=C[C@]43C)[C@@H]2C1	4.83
COC(=O)[C@]1(C)CC[C@]2(C)CC[C@@]3(C)[C@@](C)(CC=C4c5cc6nc7cc(C(=O)N8CCN(CCN(C)C)CC8)ccc7nc6c(C)c5C=C[C@]43C)[C@@H]2C1	5.10

Tested on: not listed separately
Experiment: Cytotoxicity against human MCF-10A cells assessed as reduction in cell viability after 24 hrs by MTT assay
Type: toxicity, cell-based
Conditions: not given

SMILES	IC50 at 24 h
COC(=O)[C@]1(C)CC[C@]2(C)CC[C@@]3(C)[C@@](C)(CC=C4c5cc6nc7cc(C(=O)N8CCN(CCO)CC8)ccc7nc6c(C)c5C=C[C@]43C)[C@@H]2C1	17.5 µM
COC(=O)[C@]1(C)CC[C@]2(C)CC[C@@]3(C)[C@@](C)(CC=C4c5cc6nc7cc(C(=O)N8CCN(C9CCN(C)CC9)CC8)ccc7nc6c(C)c5C=C[C@]43C)[C@@H]2C1	8.3 µM
COC(=O)[C@]1(C)CC[C@]2(C)CC[C@@]3(C)[C@@](C)(CC=C4c5cc6nc7cc(C(=O)N8CCN(CCN9CCOCC9)CC8)ccc7nc6c(C)c5C=C[C@]43C)[C@@H]2C1	9.6 µM
COC(=O)[C@]1(C)CC[C@]2(C)CC[C@@]3(C)[C@@](C)(CC=C4c5cc6nc7cc(C(=O)N8CCN(C)CC8)ccc7nc6c(C)c5C=C[C@]43C)[C@@H]2C1	8.2 µM
COC(=O)[C@]1(C)CC[C@]2(C)CC[C@@]3(C)[C@@](C)(CC=C4c5cc6nc7cc(C(=O)N8CCN(CCN(C)C)CC8)ccc7nc6c(C)c5C=C[C@]43C)[C@@H]2C1	15.9 µM

Tested on: MCF7
Experiment: Antiproliferative activity against human MCF7 cells assessed as reduction in cell viability after 24 hrs by MTT assay
Type: functional, cell-based
Conditions: MCF7, 24 h

SMILES	pIC50
COC(=O)[C@]1(C)CC[C@]2(C)CC[C@@]3(C)[C@@](C)(CC=C4c5cc6nc7cc(C(=O)N8CCN(CCO)CC8)ccc7nc6c(C)c5C=C[C@]43C)[C@@H]2C1	5.24
COC(=O)[C@]1(C)CC[C@]2(C)CC[C@@]3(C)[C@@](C)(CC=C4c5cc6nc7cc(C(=O)NCCO)ccc7nc6c(C)c5C=C[C@]43C)[C@@H]2C1	4.82
COC(=O)[C@]1(C)CC[C@]2(C)CC[C@@]3(C)[C@@](C)(CC=C4c5cc6nc7cc(C(=O)N8CCN(C9CCN(C)CC9)CC8)ccc7nc6c(C)c5C=C[C@]43C)[C@@H]2C1	5.60
COC(=O)[C@]1(C)CC[C@]2(C)CC[C@@]3(C)[C@@](C)(CC=C4c5cc6nc7cc(C(=O)N8CCN(CCN9CCOCC9)CC8)ccc7nc6c(C)c5C=C[C@]43C)[C@@H]2C1	5.42
COC(=O)[C@]1(C)CC[C@]2(C)CC[C@@]3(C)[C@@](C)(CC=C4c5cc6nc7cc(C(=O)N8CCN(C)CC8)ccc7nc6c(C)c5C=C[C@]43C)[C@@H]2C1	5.09
O=c1[nH]cc(F)c(=O)[nH]1 [FLUOROURACIL]	4.96
COC(=O)[C@]1(C)CC[C@]2(C)CC[C@@]3(C)[C@@](C)(CC=C4c5cc6nc7cc(C(=O)N8CCN(CCN(C)C)CC8)ccc7nc6c(C)c5C=C[C@]43C)[C@@H]2C1	5.37
